Laboratory results as given in patent US20240083897A1, “GCN2 MODULATING COMPOUNDS AND USES THEREOF” (HiberCell, Inc., priority 2021, published 2024).
pIC50: −log10 of the molar value. Read-outs that look alike come from different tables or passages of the source.

Target: GCN2 (Homo sapiens (Human), UniProt Q9P2K8)
Assay: TR-FRET biochemical assay for inhibition of GCN2
[1] = GCN2 2 nM, 100 nM GFP-eIF2a, 150 μM ATP, TR-FRET

GCN2, sequence (Q9P2K8 whole entry): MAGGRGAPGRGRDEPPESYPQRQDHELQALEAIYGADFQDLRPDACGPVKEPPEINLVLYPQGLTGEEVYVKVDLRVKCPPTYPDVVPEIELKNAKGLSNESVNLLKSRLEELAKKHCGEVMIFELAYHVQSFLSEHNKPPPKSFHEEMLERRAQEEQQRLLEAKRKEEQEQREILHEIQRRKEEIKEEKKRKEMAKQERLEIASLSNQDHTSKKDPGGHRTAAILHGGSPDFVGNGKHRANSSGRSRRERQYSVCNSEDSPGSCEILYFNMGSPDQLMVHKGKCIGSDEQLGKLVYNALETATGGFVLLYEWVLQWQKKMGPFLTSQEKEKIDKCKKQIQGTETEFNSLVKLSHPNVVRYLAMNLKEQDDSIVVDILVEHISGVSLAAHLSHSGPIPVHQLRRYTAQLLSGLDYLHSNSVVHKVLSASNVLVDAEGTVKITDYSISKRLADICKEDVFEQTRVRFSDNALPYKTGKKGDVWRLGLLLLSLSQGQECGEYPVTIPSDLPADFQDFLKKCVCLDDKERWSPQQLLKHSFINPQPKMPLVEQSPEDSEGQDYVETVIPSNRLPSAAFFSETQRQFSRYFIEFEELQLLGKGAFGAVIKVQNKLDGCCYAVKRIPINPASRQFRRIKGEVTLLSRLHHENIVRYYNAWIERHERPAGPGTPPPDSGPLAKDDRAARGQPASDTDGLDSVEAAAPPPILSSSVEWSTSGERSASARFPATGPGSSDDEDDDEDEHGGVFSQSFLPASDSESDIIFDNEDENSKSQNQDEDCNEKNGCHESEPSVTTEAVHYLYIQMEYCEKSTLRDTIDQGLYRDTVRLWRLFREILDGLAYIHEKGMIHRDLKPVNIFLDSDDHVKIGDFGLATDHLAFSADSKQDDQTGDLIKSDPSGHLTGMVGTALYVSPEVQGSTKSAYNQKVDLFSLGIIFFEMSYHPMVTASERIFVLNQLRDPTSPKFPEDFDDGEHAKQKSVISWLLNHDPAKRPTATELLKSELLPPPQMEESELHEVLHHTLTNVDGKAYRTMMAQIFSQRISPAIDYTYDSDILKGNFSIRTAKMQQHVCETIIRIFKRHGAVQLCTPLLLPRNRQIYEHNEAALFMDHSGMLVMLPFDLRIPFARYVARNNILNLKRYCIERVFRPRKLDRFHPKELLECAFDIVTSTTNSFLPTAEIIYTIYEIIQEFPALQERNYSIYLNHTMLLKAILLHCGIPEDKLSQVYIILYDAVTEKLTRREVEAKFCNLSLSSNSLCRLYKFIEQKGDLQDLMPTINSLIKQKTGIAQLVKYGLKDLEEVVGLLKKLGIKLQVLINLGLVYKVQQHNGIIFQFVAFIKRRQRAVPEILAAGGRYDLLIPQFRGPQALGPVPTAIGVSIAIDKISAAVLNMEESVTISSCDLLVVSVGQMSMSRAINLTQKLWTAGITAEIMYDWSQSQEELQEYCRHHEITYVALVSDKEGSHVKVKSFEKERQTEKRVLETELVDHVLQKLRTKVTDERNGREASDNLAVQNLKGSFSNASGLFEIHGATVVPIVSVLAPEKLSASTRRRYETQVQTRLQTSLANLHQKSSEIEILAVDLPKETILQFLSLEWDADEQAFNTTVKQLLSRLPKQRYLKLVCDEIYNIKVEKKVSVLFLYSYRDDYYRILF

Work on `COc1ncc(F)cc1S(=O)(=O)Nc1ccc(F)c(-c2ccn3c(-c4ncc[nH]4)ncc3c2)c1F` [Compound 36, N-[2,4-difluoro-3-[3-(1H-imidazol-2-yl)imidazo[1,5-a]pyridin-7-yl]phenyl]-5-fluoro-2-methoxypyridine-3-sulfonamide] yielded a pIC50 [1] greater than 7.30.
`COc1ncc(Cl)cc1S(=O)(=O)Nc1ccc(F)c(-c2ccc3c(-c4ccn(C)n4)ncn3c2)c1F` [Compound 37, 5-chloro-N-[2,4-difluoro-3-[1-(1-methylpyrazol-3-yl)imidazo[1,5-a]pyridin-6-yl]phenyl]-2-methoxypyridine-3-sulfonamide] was tested, and the pIC50 [1] was greater than 7.30.
Compound `COc1ncc(Cl)cc1S(=O)(=O)Nc1ccc(F)c(-c2ccc3c(-c4ncc[nH]4)ncn3c2)c1C#N` [Compound 38, 5-chloro-N-[2-cyano-4-fluoro-3-[1-(1H-imidazol-2-yl)imidazo[1,5-a]pyridin-6-yl]phenyl]-2-methoxypyridine-3-sulfonamide] has a pIC50 [1] greater than 7.30.
`N#Cc1cc2c(c(S(=O)(=O)Nc3ccc(F)c(-c4ccc5c(-c6ncc[nH]6)ncn5c4)c3F)c1)CCC2O` (stereo not drawn) [Compound 39, 6-cyano-N-[2,4-difluoro-3-[1-(1H-imidazol-2-yl)imidazo[1,5-a]pyridin-6-yl]phenyl]-1-hydroxy-2,3-dihydro-1H-indene-4-sulfonamide] was tested, and the pIC50 [1] was greater than 7.30.
Compound `COc1ncc(C#N)cc1S(=O)(=O)Nc1ccc(F)c(-c2ccn3c(-c4ncc[nH]4)ncc3c2)c1F` [Compound 40, 5-cyano-N-[2,4-difluoro-3-[3-(1H-imidazol-2-yl)imidazo[1,5-a]pyridin-7-yl]phenyl]-2-methoxypyridine-3-sulfonamide] has a pIC50 [1] greater than 7.30.
`COc1ncc(Cl)cc1S(=O)(=O)Nc1ccc(F)c(-c2ccn3c(-c4ncc[nH]4)ncc3c2F)c1F` [Compound 41, 5-chloro-N-[2,4-difluoro-3-[8-fluoro-3-(1H-imidazol-2-yl)imidazo[1,5-a]pyridin-7-yl]phenyl]-2-methoxypyridine-3-sulfonamide] was tested, and the pIC50 [1] was greater than 7.30.
For `COc1ncc(C#N)cc1S(=O)(=O)Nc1ccc(F)c(-c2ccn3c(-c4ncc[nH]4)ncc3c2F)c1F` [Compound 42, 5-cyano-N-[2,4-difluoro-3-[8-fluoro-3-(1H-imidazol-2-yl)imidazo[1,5-a]pyridin-7-yl]phenyl]-2-methoxypyridine-3-sulfonamide], the pIC50 [1] was greater than 7.30.
`COc1ncc(Cl)cc1S(=O)(=O)Nc1ccc(F)c(-c2ccc3c(-c4nc(C#N)c[nH]4)ncn3c2)c1F` [Compound 43, N-[3-[1-(4-cyano-1H-imidazol-2-yl)imidazo[1,5-a]pyridin-6-yl]-2,4-difluorophenyl]-5-chloro-2-methoxypyridine-3-sulfonamide] was tested, and the pIC50 [1] was greater than 7.30.
In the case of `Cc1ncc(F)cc1S(=O)(=O)Nc1ccc(F)c(-c2ccc3c(-c4nc(C#N)c[nH]4)ncn3c2)c1F` [Compound 44, N-[3-[1-(4-cyano-1H-imidazol-2-yl)imidazo[1,5-a]pyridin-6-yl]-2,4-difluorophenyl]-5-fluoro-2-methylpyridine-3-sulfonamide], the pIC50 [1] was greater than 7.30.
Work on `COc1ncc(F)cc1S(=O)(=O)Nc1ccc(F)c(-c2ccc3c(-c4nc(Cl)c[nH]4)ncn3c2)c1F` [Compound 45, N-[3-[1-(4-chloro-1H-imidazol-2-yl)imidazo[1,5-a]pyridin-6-yl]-2,4-difluorophenyl]-5-fluoro-2-methoxypyridine-3-sulfonamide] yielded a pIC50 [1] greater than 7.30.
`COc1ncc(F)cc1S(=O)(=O)Nc1ccc(F)c(-c2ccc3c(-c4ccn(C)n4)ncn3c2)c1F` [Compound 46, N-[2,4-difluoro-3-[1-(1-methylpyrazol-3-yl)imidazo[1,5-a]pyridin-6-yl]phenyl]-5-fluoro-2-methoxypyridine-3-sulfonamide] gave a pIC50 [1] greater than 7.30.
`COc1ncc(F)cc1S(=O)(=O)Nc1ccc(F)c(-c2ccn3c(-c4ncc[nH]4)ncc3c2F)c1F` [Compound 47, N-[2,4-difluoro-3-[8-fluoro-3-(1H-imidazol-2-yl)imidazo[1,5-a]pyridin-7-yl]phenyl]-5-fluoro-2-methoxypyridine-3-sulfonamide] was tested, and the pIC50 [1] was greater than 7.30.
With `COc1ncc(Cl)cc1S(=O)(=O)Nc1ccc(F)c(-c2ccc3c(-c4ncc(C)[nH]4)ncn3c2)c1F` [Compound 48, 5-chloro-N-[2,4-difluoro-3-[1-(4-methyl-3H-imidazol-2-yl)imidazo[1,5-a]pyridine-6-yl]phenyl]-2-methoxypyridine-3-sulfonamide] the pIC50 [1] was greater than 7.30.
Compound `COc1ncc(Cl)cc1S(=O)(=O)Nc1ccc(F)c(-c2ccc3c(-c4ncc(CO)[nH]4)ncn3c2)c1F` [Compound 49, 5-chloro-N-(2,4-difluoro-3-[1-[4-(hydroxymethyl)-3H-imidazol-2-yl]imidazo[1,5-a]pyridin-6-yl]phenyl)-2-methoxypyridine-3-sulfonamide] has a pIC50 [1] greater than 7.30.
For `Cc1cnc(-c2ncn3cc(-c4c(F)ccc(NS(=O)(=O)c5cc(F)cnc5C)c4F)ccc23)[nH]1` [Compound 50, N-[2,4-difluoro-3-[1-(4-methyl-3H-imidazol-2-yl)imidazo[1,5-a]pyridin-6-yl]phenyl]-5-fluoro-2-methylpyridine-3-sulfonamide], the pIC50 [1] was greater than 7.30.
Work on `Cc1ncc(F)cc1S(=O)(=O)Nc1ccc(F)c(-c2ccc3c(-c4ncc(CO)[nH]4)ncn3c2)c1F` [Compound 51, N-(2,4-difluoro-3-[1-[4-(hydroxymethyl)-3H-imidazol-2-yl]imidazo[1,5-a]pyridin-6-yl]phenyl)-5-fluoro-2-methylpyridine-3-sulfonamide] yielded a pIC50 [1] greater than 7.30.
Compound `COc1ncc(Cl)cc1S(=O)(=O)Nc1ccc(F)c(-c2ccc3c(-c4nc(Cl)c[nH]4)ncn3c2)c1F` [Compound 52, 5-chloro-N-[3-[1-(4-chloro-1H-imidazol-2-yl)imidazo[1,5-a]pyridin-6-yl]-2,4-difluorophenyl]-2-methoxypyridine-3-sulfonamide] has a pIC50 [1] greater than 7.30.
With `COc1ncc(C#N)cc1S(=O)(=O)Nc1ccc(F)c(-c2ccc3c(-c4ccn(C)n4)ncn3c2)c1F` [Compound 53, 5-cyano-N-[2,4-difluoro-3-[1-(1-methylpyrazol-3-yl)imidazo[1,5-a]pyridin-6-yl]phenyl]-2-methoxypyridine-3-sulfonamide] the pIC50 was 6.30 to 7.30.
For `Cc1ncc(F)cc1S(=O)(=O)Nc1ccc(F)c(-c2ccc3c(-c4ccn(C)n4)ncn3c2)c1F` [Compound 54, N-[2,4-difluoro-3-[1-(1-methylpyrazol-3-yl)imidazo[1,5-a]pyridin-6-yl]phenyl]-5-fluoro-2-methylpyridine-3-sulfonamide], the pIC50 was 6.30 to 7.30.
For `COc1ncc(Cl)cc1S(=O)(=O)Nc1ccc(F)c(-c2ccc3c(-n4ccnn4)ncn3c2)c1F` [Compound 55-1, 5-chloro-N-[2,4-difluoro-3-[1-(1,2,3-triazol-1-yl)imidazo[1,5-a]pyridin-6-yl]phenyl]-2-methoxypyridine-3-sulfonamide], the pIC50 [1] was greater than 7.30.
Compound `COc1ncc(Cl)cc1S(=O)(=O)Nc1ccc(F)c(-c2ccc3c(-n4nccn4)ncn3c2)c1F` [Compound 55-2, 5-chloro-N-[2,4-difluoro-3-[1-(1,2,3-triazol-2-yl)imidazo[1,5-a]pyridin-6-yl]phenyl]-2-methoxypyridine-3-sulfonamide] has a pIC50 of 6.00 to 6.30.
In the case of `Cc1cnc(-c2ncn3cc(-c4c(F)ccc(NS(=O)(=O)c5cc(Cl)cnc5C)c4F)ccc23)[nH]1` [Compound 56, 5-chloro-N-[2,4-difluoro-3-[1-(4-methyl-3H-imidazol-2-yl)imidazo[1,5-a]pyridine-6-yl]phenyl]-2-methylpyridine-3-sulfonamide], the pIC50 [1] was greater than 7.30.
`COc1ncc(Cl)cc1S(=O)(=O)Nc1ccc(F)c(-c2ccc3c(-c4nnc(C)[nH]4)ncn3c2)c1F` [Compound 57, 5-chloro-N-[2,4-difluoro-3-[1-(5-methyl-4H-1,2,4-triazol-3-yl)imidazo[1,5-a]pyridin-6-yl]phenyl]-2-methoxypyridine-3-sulfonamide] showed a pIC50 [1] greater than 7.30.
For `COc1ncc(F)cc1S(=O)(=O)Nc1ccc(F)c(-c2ccc3c(-c4nnc(C)[nH]4)ncn3c2)c1F` [Compound 58, N-[2,4-difluoro-3-[1-(5-methyl-4H-1,2,4-triazol-3-yl)imidazo[1,5-a]pyridin-6-yl]phenyl]-5-fluoro-2-methoxypyridine-3-sulfonamide], the pIC50 [1] was greater than 7.30.
`COc1ncc(C#N)cc1S(=O)(=O)Nc1ccc(F)c(-c2ccc3c(-c4nnc(C)[nH]4)ncn3c2)c1F` [Compound 59, 5-cyano-N-[2,4-difluoro-3-[1-(5-methyl-4H-1,2,4-triazol-3-yl)imidazo[1,5-a]pyridin-6-yl]phenyl]-2-methoxypyridine-3-sulfonamide] was tested, and the pIC50 [1] was greater than 7.30.
`Cc1nnc(-c2ncn3cc(-c4c(F)ccc(NS(=O)(=O)c5cc(F)cnc5C)c4F)ccc23)[nH]1` [Compound 60, N-[2,4-difluoro-3-[1-(5-methyl-4H-1,2,4-triazol-3-yl)imidazo[1,5-a]pyridin-6-yl]phenyl]-5-fluoro-2-methylpyridine-3-sulfonamide] was tested, and the pIC50 [1] was greater than 7.30.
`Cc1nnc(-c2ncn3cc(-c4c(F)ccc(NS(=O)(=O)c5cc(Cl)cnc5C)c4F)ccc23)[nH]1` [Compound 61, 5-chloro-N-[2,4-difluoro-3-[1-(5-methyl-4H-1,2,4-triazol-3-yl)imidazo[1,5-a]pyridin-6-yl]phenyl]-2-methylpyridine-3-sulfonamide] showed a pIC50 [1] greater than 7.30.
In the case of `Cc1ncc(Cl)cc1S(=O)(=O)Nc1ccc(F)c(-c2ccc3c(-c4ccn(C)n4)ncn3c2)c1F` [Compound 62, 5-chloro-N-[2,4-difluoro-3-[1-(1-methylpyrazol-3-yl)imidazo[1,5-a]pyridin-6-yl]phenyl]-2-methylpyridine-3-sulfonamide], the pIC50 [1] was greater than 7.30.
`COc1ncc(Cl)cc1S(=O)(=O)Nc1ccc(F)c(-c2ccc3c(-n4cnnn4)ncn3c2)c1F` [Compound 63, 5-chloro-N-[2,4-difluoro-3-[1-(1,2,3,4-tetrazol-1-yl)imidazo[1,5-a]pyridin-6-yl]phenyl]-2-methoxypyridine-3-sulfonamide] gave a pIC50 [1] greater than 7.30.
With `COc1ncc(Cl)cc1S(=O)(=O)Nc1ccc(F)c([C@@H]2CCn3c(cnc3-c3ncc[nH]3)C2)c1F` [Compound 64-1, (R)—N-(3-(3-(1H-imidazol-2-yl)-5,6,7,8-tetrahydroimidazo[1,5-a]pyridin-7-yl)-2,4-difluorophenyl)-5-chloro-2-methoxypyridine-3-sulfonamide] the pIC50 [1] was greater than 7.30.
